Laboratory results from patent US20240051965A1, “OXYGEN-CONTAINING HETEROCYCLIC COMPOUND AND USE THEREOF” (Icahn School of Medicine at Mount Sinai, priority 2022, published 2024).

test system: TGF/SMAD Signaling Pathway SBE Reporter-HEK293 Cell Line; experiment: Luciferase screen, TGF/SMAD Signaling Pathway SBE Reporter-HEK293 cells stimulated with TGFβ; format: cell-based; conditions: compound 4 hours before TGFβ 10 ng/mL, incubated overnight (18 hours), luminescence
Method: For the data in Table 1, the Bight-Glo™ Luciferase Assay System from Promega was used with TGF/SMAD Signaling Pathway SBE Reporter-HEK293 Cell Line from BPSbioscience. On day 1 SBE reporter-HEK293 cells were seeded at a density of 25,000 cells per well into a white clear-bottom 96-well microplate in 100 μL of growth medium without geneticin. The plate was incubated at 37° C. in a CO2 incubator for 24 hrs. The wells were renewed with 60 μL assay medium and treated with test compounds by adding 5 μL of compounds in medium. The concentration of test compound in medium is adjusted so that 5 μL will provide the desired molarity of the solution. After 4 hours, TGFβ was added to 10 ng/mL. The plate was incubated at 37° C. in a CO2 incubator overnight (18 hours). One hour prior to assay all medium was replaced. The luciferase assay was run using ONE-Step™ Luciferase Assay System by adding 100 μL of ONE-Step™ Luciferase reagent per well, rocking at room temperature for ˜15 to 30 minutes and measuring luminescence using a luminometer. The signals were normalized to percentage inhibition, with non-TGF treated cells as 100% inhibition, and the data were processed by Graphpad Prism.
The symbol “***” indicates IC50<100 nM, “**” indicates IC50≥100 nM but <10 μM, “*” indicates IC50≥10 μM.

| SMILES | IC50 |
| --- | --- |
| [2H]C([2H])([2H])C1(C([2H])([2H])[2H])Oc2ncc(-c3nc(-c4ccc(Cl)cc4)no3)cc2C[C@@H]1O [Compound 9] | < 0.1 µM |
| O[C@H]1Cc2cc(-c3nc(-c4ccc(Cl)cc4)no3)cnc2OC12CCCC2 [Compound 3] | ≥ 10 µM |
| O[C@H]1Cc2cc(-c3nnc(-c4ccc(Cl)cc4)o3)cnc2OC12CCC2 [Compound 7] | 0.1 to 10 µM |
| O[C@H]1Cc2cc(-c3nc(-c4ccc(Cl)cc4)no3)cnc2OC12CCC2 [Compound 1] | 0.1 to 10 µM |
| Cn1ccc(-c2noc(-c3cnc4c(c3)C[C@H](O)C3(CCC3)O4)n2)n1 [Compound 6] | ≥ 10 µM |
| O[C@H]1Cc2cc(-c3noc(-c4ccc(Cl)cc4)n3)cnc2OC12CCC2 [Compound 8] | ≥ 10 µM |
| O[C@H]1Cc2cc(-c3nc(-c4ccc(Cl)c(F)c4)no3)cnc2OC12CCC2 [Compound 4] | ≥ 10 µM |
| Cc1ccc(-c2noc(-c3cnc4c(c3)C[C@H](O)C3(CCC3)O4)n2)cc1 [Compound 5] | ≥ 10 µM |
| O[C@@H]1Cc2cc(-c3nc(-c4ccc(Cl)cc4)no3)cnc2OC12CCC2 [Compound 2] | < 0.1 µM |
